From article PMC10434283, “A Novel Two-Component Bacteriocin, Acidicin P, and Its Key Residues for Inhibiting Listeria monocytogenes by Targeting the Cell Membrane” (Microbiology Spectrum, 2023)

What was measured:
L. monocytogenes = assay: Agar well diffusion assay of the mutations; format: cell-based, Listeria monocytogenes; settings: BHI agar, 10^5 CFU/mL, 40 μL peptide per well, 24 h at 30°C
From the text: (§1) The antimicrobial spectrum was investigated using the indicator strains Streptococcus agalactiae 10465, Listeria monocytogenes 1.10753, enterotoxigenic Escherichia coli K88, vancomycin-resistant Enterococcus faecalis V583, Salmonella enterica serovar Typhimurium 14028, methicillin-resistant Staphylococcus aureus, and Bacillus cereus 1.1846. L. monocytogenes 1.10753 was used for growth curve measurement with a microtiter plate assay system. The indicator (at 1 × 10^5 CFU/mL) and the peptide (at 2-fold dilutions) were added to a final volume of 200 μL in each well. The bacterial growth was monitored with Bioscreen C (OyGrowth Curves Ab Ltd.) at 600 nm at 30°C. The MIC was defined as the total amount of Adpα, Adpβ, and acidicin P (the complementary peptides combined with equal amounts) that inhibited the growth of the indicator strain. The agar well diffusion method was used to investigate the antimicrobial activity of the mutations. The L. monocytogenes was inoculated in a brain heart infusion (BHI) agar plate as an indicator at a concentration of 10^5 CFU/mL. The peptide mutants (40 μL) were added to the wells (5 mm), and the plates were incubated for 24 h at 30°C.

[1] = system: L. monocytogenes cell membrane; assay: Cytoplasmic membrane permeability assay with propidium iodide; format: cell-based, Listeria monocytogenes; settings: positive control, 1× MIC
Procedure: Pretreatment of L. monocytogenes cells for the cytoplasmic membrane permeability assay was similar to that for the PMF assay. The cells were resuspended in 1 mL PBS and treated with different concentrations of acidicin P at 30°C for 30 min. The treated cells were stained with 10 μg/mL propidium iodide (PI, Bioss) in the dark for 15 min. Emission spectra of the mixture were recorded at 615 nm upon excitation at 535 nm with a Synergy H4 device (BioTek).

[2] = system: Listeria monocytogenes 1.10753; assay: MIC by microtiter plate growth curve assay; format: cell-based; settings: for growth rate of L. monocytogenes: peptide individually, at any concentration; for MIC: microtiter growth curve, 1 × 10^5 CFU/mL, 30°C, 600 nm
From the text: as §1

RNKMAYNVGKAISRIMRAVR [R18A (Adpα)-K2A (Adpβ), acidicin P mutant pair: Adpα R18A with Adpβ K2A]
antimicrobial activity compared to the wild type (L. monocytogenes): no detrimental effect

nisin
PI fluorescence versus untreated cells [1]: higher fluorescence

RNKMAYNVGKAISRIMRRVR [Adpα, 20-residue mature α peptide of the two-component bacteriocin acidicin P, obtained by solid-phase peptide synthesis]
growth rate of L. monocytogenes [2]: not affected
MIC ([2]; ratio α:β 1:0 (Adpα alone)): / (No antimicrobial activity observed in the range of 1.56 to 200 μg/mL acidicin P)

ANKMAYNVGKAISRIMRRVR [R1A (Adpα)-D12A (Adpβ), acidicin P mutant pair]
antimicrobial activity compared to the wild type (L. monocytogenes): no detrimental effect

KKKRGFWYHVGDAVTSFGRGFASAFG [Adpβ, 26-residue mature β peptide of the two-component bacteriocin acidicin P, obtained by solid-phase peptide synthesis]
growth rate of L. monocytogenes [2]: not affected
MIC ([2]; ratio α:β 0:1 (Adpβ alone)): / (No antimicrobial activity observed in the range of 1.56 to 200 μg/mL acidicin P)

RNKMAYAVGKAISAIMRRVR [N7A//R14A (Adpα)-D12A//S16A//R19A (Adpβ), acidicin P mutant pair: Adpα N7A, R14A with Adpβ D12A, S16A, R19A]
antimicrobial activity compared to the wild type (L. monocytogenes): significantly decreased

RNKMAYNVGKAISAIMRRVR [R14A (Adpα)-D12A (Adpβ), acidicin P mutant pair: Adpα R14A with Adpβ D12A]
antimicrobial activity compared to the wild type (L. monocytogenes): significantly decreased

RNKMIYNVIKAISRIMRRVR [A5I//G9I (Adpα)-S16I//G20I (Adpβ), acidicin P mutant pair: Adpα A5I, G9I with Adpβ S16I, G20I]
antimicrobial activity compared to the wild type (L. monocytogenes): significantly decreased
bactericidal zone (L. monocytogenes): no bactericidal zone was observed

RNKMAYAVGKAISRIMRRVR [N7A (Adpα)-S16A//R19A (Adpβ), acidicin P mutant pair: Adpα N7A with Adpβ S16A, R19A]
antimicrobial activity compared to the wild type (L. monocytogenes): significantly decreased
